≈ marks a conversion by molar mass, not a printed value.
Tests used:
Type in all cases: cell-based
[1] = system: Streptococcus agalactiae - macrolide-resistant clinical isolate
Excerpt: (§1) Cation-adjusted Mueller-Hinton broth (Oxoid Ltd., Basingstoke, UK and Trek Diagnostic Systems Ltd., East Grinstead, UK) (supplemented with 5% laked horse blood for Streptococcus spp., Corynebacterium jeikeium and Listeria monocytogenes) was used for aerobic bacteria, with an initial inoculum of approximately 10^5 colony-forming units (CFU)/mL.

[2] = system: Group G Streptococcus - macrolide-resistant clinical isolate
Excerpt: as §1

[3] = system: EMRSA3 Staphylococcus aureus (MRSA) - SSCmec type 1; details: EMRSA3 - SSCmec type 1
Excerpt: as §1

[4] = system: Staphylococcus aureus - teicoplanin-intermediate clinical isolate
Excerpt: as §1

[5] = system: HT2001254 Staphylococcus aureus (MRSA) - PVL positive
Excerpt: as §1

[6] = system: MU50 Staphylococcus aureus (MRSA) - VISA type strain
Excerpt: as §1

[7] = system: Streptococcus pneumoniae - penicillin-susceptible clinical isolate
Excerpt: as §1

[8] = system: Staphylococcus aureus - multi-drug-resistant clinical isolate
Excerpt: as §1

[9] = system: Enterobacter sp - multi-drug resistant clinical isolate
Excerpt: as §1

[10] = system: Streptococcus bovis - antibiotic-susceptible clinical isolate
Excerpt: as §1

[11] = system: Escherichia coli ATCC32518 - β-lactamase positive type strain
Excerpt: as §1

[12] = system: Stenotrophomonas maltophilia - antibiotic-susceptible clinical isolate
Excerpt: as §1

[13] = system: Enterobacter sp - antibiotic-susceptible clinical isolate
Excerpt: as §1

[14] = system: Streptococcus pyogenes - Macrolide (MLS) resistant clinical isolate
Excerpt: as §1

[15] = system: Pseudomonas aeruginosa - multi-drug resistant clinical isolate
Excerpt: as §1

[16] = system: Staphylococcus aureus ATCC 43300 - methicillin-resistant control strain
Excerpt: as §1

[17] = system: Staphylococcus aureus ATCC 29213 - antibiotic-susceptible control strain
Excerpt: as §1

[18] = system: Group C Streptococcus - antibiotic-susceptible clinical isolate
Excerpt: as §1

[19] = system: Morganella morganii - multi-drug resistant clinical isolate
Excerpt: as §1

[20] = system: EMRSA15 Staphylococcus aureus (MRSA) - SSCmec type 4; details: EMRSA15 - SSCmec type 4
Excerpt: as §1

[21] = system: Group G Streptococcus - antibiotic-susceptible clinical isolate
Excerpt: as §1

[22] = system: EMRSA1 Staphylococcus aureus (MRSA) - SSCmec type 3; details: EMRSA1 - SSCmec type 3
Excerpt: as §1

[23] = system: Escherichia coli - multi-drug resistant clinical isolate
Excerpt: as §1

[24] = system: Streptococcus bovis - macrolide-resistant clinical isolate
Excerpt: as §1

[25] = system: Corynebacterium jeikeium - antibiotic-susceptible clinical isolate
Excerpt: as §1

[26] = system: Enterococcus faecalis vancomycin-susceptible clinical isolate
Excerpt: as §1

[27] = system: Staphylococcus saprophyticus - antibiotic susceptible clinical isolate
Excerpt: as §1

[28] = system: Pseudomonas aeruginosa ATCC27853 - antibiotic-susceptible type strain
Excerpt: as §1

[29] = system: Enterococcus faecium vancomycin-resistant (VanB) clinical isolate
Excerpt: as §1

[30] = system: Enterococcus faecalis vancomycin-resistant (VanB) clinical isolate
Excerpt: as §1

[31] = system: Klebsiella aerogenes - multi-drug resistant clinical isolate
Excerpt: as §1

[32] = system: Staphylococcus haemolyticus - antibiotic susceptible clinical isolate
Excerpt: as §1

[33] = system: Staphylococcus epidermidis methicillin-resistant clinical isolate
Excerpt: as §1

[34] = system: Listeria monocytogenes - antibiotic-susceptible clinical isolate
Excerpt: as §1

[35] = system: Klebsiella aerogenes NCTC11228 - antibiotic-susceptible type strain
Excerpt: as §1

[36] = system: Enterococcus faecalis vancomycin-resistant (VanA) clinical isolate
Excerpt: as §1

[37] = system: Enterococcus faecalis - ATCC 29212 antibiotic-susceptible control strain
Excerpt: as §1

[38] = system: EMRSA16 Staphylococcus aureus (MRSA) - SSCmec type 2; details: EMRSA16 - SSCmec type 2
Excerpt: as §1

[39] = system: Staphylococcus aureus ATCC 25923 - antibiotic-susceptible control strain
Excerpt: as §1

CCCCCCNC(=O)[C@H](CCCNC(=N)N)NC(=O)[C@H](Cc1c(C(C)(C)C)[nH]c2c(C(C)(C)C)cc(C(C)(C)C)cc12)NC(=O)[C@@H](N)CCCNC(=N)N [Compound 8] showed an MIC [1] of 8 µg/mL (≈ 10.4 µM), an MIC [2] of 8 µg/mL (≈ 10.4 µM) and an MIC [3] of 4 µg/mL (≈ 5.21 µM). It also gave an MIC [4] of 4 µg/mL (≈ 5.21 µM), an MIC [5] of 4 µg/mL (≈ 5.21 µM) and an MIC [6] of 4 µg/mL (≈ 5.21 µM). It also gave an MIC [7] of 8 µg/mL (≈ 10.4 µM), an MIC [8] of 4 µg/mL (≈ 5.21 µM) and an MIC [9] of 8 µg/mL (≈ 10.4 µM). It also gave an MIC [10] of 8 µg/mL (≈ 10.4 µM), an MIC [11] of 8 µg/mL (≈ 10.4 µM) and an MIC [12] of 4 µg/mL (≈ 5.21 µM). The MIC [13] was 8 µg/mL (≈ 10.4 µM), the MIC [14] was 8 µg/mL (≈ 10.4 µM) and the MIC [15] was 4 µg/mL (≈ 5.21 µM). For the same compound, the MIC [16] was 4 µg/mL (≈ 5.21 µM), the MIC [17] was 4 µg/mL (≈ 5.21 µM) and the MIC [18] was 8 µg/mL (≈ 10.4 µM). For the same compound, the MIC [19] was 8 µg/mL (≈ 10.4 µM), the MIC [20] was 4 µg/mL (≈ 5.21 µM) and the MIC [21] was 8 µg/mL (≈ 10.4 µM). For the same compound, the MIC [22] was 4 µg/mL (≈ 5.21 µM), the MIC [23] was 8 µg/mL (≈ 10.4 µM) and the MIC [24] was 2 µg/mL (≈ 2.6 µM). It also gave an MIC [25] of 4 µg/mL (≈ 5.21 µM), an MIC [26] of 4 µg/mL (≈ 5.21 µM) and an MIC [27] of 0.5 µg/mL (≈ 0.651 µM). For the same compound, the MIC [28] was 8 µg/mL (≈ 10.4 µM), the MIC [29] was 4 µg/mL (≈ 5.21 µM) and the MIC [30] was 8 µg/mL (≈ 10.4 µM). It also gave an MIC [31] of 8 µg/mL (≈ 10.4 µM), an MIC [32] of 4 µg/mL (≈ 5.21 µM) and an MIC [33] of 2 µg/mL (≈ 2.6 µM). It also gave an MIC [34] of 8 µg/mL (≈ 10.4 µM), an MIC [35] of 8 µg/mL (≈ 10.4 µM) and an MIC [36] of 4 µg/mL (≈ 5.21 µM). The MIC [37] was 4 µg/mL (≈ 5.21 µM), the MIC [38] was 4 µg/mL (≈ 5.21 µM) and the MIC [39] was 4 µg/mL (≈ 5.21 µM).
